{"source": "patent US20040162274A1", "about": "“Inhibition of steroid synthesis by use of progesterone or a progesterone receptor agonist” (priority 2002, published 2004)", "assay_type_in_all_cases": "cell-based, rat", "key": {"[1]": {"system": "isolated Leydig cells of rats", "experiment": "hCG-induced cAMP production in isolated Leydig cells of rats (ELISA)", "details": "for amount of cAMP formed in the cells in response to gonadotropic stimulation: FIGS. 2 and 3", "description": "(§1) The testicles of young (three months old) and old (23-24 months old) Wistar rats (Charles River, Sulzfeld, Germany) were removed immediately after killing the rats by means of carbon dioxide anaesthesia and cervical dislocation.\n(§2) In order to isolate and to purify the Leydig cells from the testicles of young and old rats, the decapsulated testicular mass of healthy Wistar rats was treated with collagenase (0.25 mg/ml) for 30 minutes at room temperature as described by Mukhopadhyay et al., Biochem. J., 239:463-467 (1986a), Mukhopadhyay et al., FEBS Lett., 202:111-116 (1986b)). The homogenous cell suspension so obtained was filtered through a nylon filter to obtain an impure Leydig cell preparation. After further purification by means of a Percoll gradient, the final number of high-grade purified Leydig cells was determined using a Neubauer chamber.\nAliquots of 100,000 cells per incubation tube were used for the experiments in which cAMP was measured. The cells were pre-incubated for 3 hours and subsequently incubated for 30 minutes with or without the addition of different concentrations of hCG as a surrogate for LH. In order to investigate the effect of the different steroids, Leydig cells were subjected to steroids for 3 hours as described. The cells were then stimulated with hCG (3 ng/ml) for 30 minutes. Incubation was stopped by the addition of absolute ethanol (final alcohol concentration ca. 80%) and subsequent mixing by means of vortices. The ethanol extract was evaporated until dry, and the residue dissolved in 1 ml of MEM, which contained 0.1% sodium azide. The amount of cAMP formed was determined by means of a specific ELISA, which was carried out as described in Budnik and Mukhopadhyay, FEBS Letters, 419:4-8 (1997). However, commercially available ELISAs, such as, for example, CM 59221 (IBL, Hamburg, Germany) or DE 0355 or DE 0450 (R&D Systems GmbH, Wiesbaden, Germany) can also be used.\nLeydig cells were subjected to 3 different steroids for 3 hours (see FIG. 1). Subsequently, the cells were stimulated over 30 minutes with hCG (human chorion gonadotropin; 3 ng/ml) as a surrogate for LH.\nThe amount of cAMP formed was determined using a specific ELISA."}, "StAR protein": {"system": "StAR protein", "experiment": "StAR expression in Leydig cells in vitro (northern blot)", "description": "RNA was isolated from 1.5×10^6 high-quality cleaned Leydig cells, which were cultivated in 12-well plates (750,000 cells/well). The RNA was extracted in accordance with a modified single-step method of Chomczynski and Sacchi, Anal. Biochem., 162:156-159 (1987), using the small-scale phenol-free RNA isolation kit (Ambion Inc., Austin, Tex.). According to the size, the isolated RNA was separated by gel electrophoresis in a 1.2% agarose gel using the formaldhyde/morpholino-propane sulphonic acid method (Sambrook et al., Vol.1, 7.37, 7.39-7.52, Nolan, C. (Ed), Cold Spring Harbor Laboratory Press, Cold Spring Harbor, N.Y.). The transfer (blotting) of the RNA from the gel onto a nylon membrane (nytran, Schleicher and Schüll, Dassel, Germany) was carried out by capillary transfer using a downwards-directed transfer for 4 hours in accordance with the manufacturer's instructions (Ambion Inc., Austin, Tex.; AMS Biotechnology, Wiesbaden, Germany) with modifications by Chomczynski, P., Anal. Biochem., 201:134-139 (1992). […]\nAs the gestagens mentioned above apparently both have inhibitory effects on cAMP and on the production of steroids in gonadotropin-stimulated Leydig cells, the inhibitory effects of progesterone on the quantity of StAR protein expressed were analysed. […] At the end of the incubation, total RNA was extracted and StAR protein expression was analysed using northern blots. […]"}, "[2]": {"system": "isolated Leydig cells of rats", "experiment": "hCG-induced testosterone production in isolated Leydig cells of rats", "details": "different concentrations for 3 hours, then hCG 5 ng/ml for 3 hours; testosterone in medium; FIG. 3", "description": "as §1, §2\nSimilar culture conditions as described above were used for experiments, in which testosterone was measured. However, aliquots of 50,000 cells per incubation tube were used. […] The content of testosterone was determined by means of specific, commercially available kits (IBL, Hamburg). The amount of testosterone for 100,000 cells was calculated on the basis of the measured values.\nBoth R5020 and drospirenone are clearly, structurally different from testosterone. […] Then, the quantity of testosterone that accumulated in the medium was measured."}}, "data": [{"smiles": "CC(=O)[C@H]1CC[C@H]2[C@@H]3CCC4=CC(=O)CC[C@]4(C)[C@H]3CC[C@]12C", "note": "[progesterone, 4-pregnene-3,20-dione]", "values": [{"measurement": "effect on cAMP reaction to gonadotropin stimulation", "setting": "[1]; Leydig cells subjected to steroid 3 hours, then hCG 3 ng/ml 30 minutes, FIG. 1", "value": "significantly inhibit"}, {"measurement": "effect on hCG-induced cAMP formation at 0.1 μmol/l", "setting": "[1]; concentration 0.1 μmol/l (10^−7 mol/l)", "value": "almost no effects"}, {"measurement": "effect on hCG-induced cAMP formation, dose-response curve", "setting": "[1]; dose-response curve, FIG. 2", "value": "dose-dependent inhibitory effect"}, {"measurement": "effect on hCG-induced cAMP formation at higher concentrations", "setting": "[1]; higher concentrations, up to 2.5 μmol/l", "value": "clearly inhibitory effects"}, {"measurement": "hCG-stimulated amounts of StAR protein", "setting": "StAR protein; pre-incubation 3 hours, then hCG 5 ng/ml 3 hours, Lane 4 vs Lane 2, FIG. 4", "value": "significant reduction"}, {"measurement": "expression of StAR protein in cells not treated with a gonadotropin", "setting": "StAR protein; pre-treatment 3 hours, no hCG, Lane 3, FIG. 4", "value": "did not significantly affect"}]}, {"smiles": "CCC(=O)[C@@]1(C)CC[C@H]2[C@@H]3CCC4=CC(=O)CCC4=C3CC[C@@]21C", "note": "[R5020]", "values": [{"measurement": "amount of cAMP formed in the cells in response to gonadotropic stimulation", "setting": "[1]", "value": "drastically reduced"}, {"measurement": "effect on hCG-induced production of testosterone", "setting": "[2]", "value": "able to inhibit the production of testosterone"}]}, {"smiles": "C[C@]12CCC(=O)C=C1[C@@H]1C[C@@H]1[C@H]1[C@@H]3[C@@H]4C[C@@H]4[C@@]4(CCC(=O)O4)[C@@]3(C)CC[C@@H]12", "note": "[drospirenone]", "values": [{"measurement": "amount of cAMP formed in the cells in response to gonadotropic stimulation", "setting": "[1]", "value": "drastically reduced"}, {"measurement": "effect on hCG-induced production of testosterone", "setting": "[2]", "value": "able to inhibit the production of testosterone"}]}]}
